Measured values from US9255098B2, “Xanthine derivative” (Chengdu Easton Pharmaceutical Co., Ltd., priority 2012, dated 2016).
Counter-ions that a name gives are not always drawn.

Legend:
[1] = test system: normal KM mice; assay: Impact on glucose tolerance in normal mice; type: in vivo; conditions: for blood glucose at 30 min after glucose loaded / blood glucose at 60 min after glucose loaded / blood glucose at 120 min after glucose loaded / Fasting blood glucose: normal KM mice, x ± SD; for blood glucose at 30 min after glucose loaded / blood glucose at 60 min after glucose loaded / blood glucose at 120 min after glucose loaded / blood glucose value compared with the positive drug (Linagliptin) / blood glucose levels compared with the blank group: 3 mg/kg i.g; for blood glucose at 30 min after glucose loaded / blood glucose at 60 min after glucose loaded / blood glucose at 120 min after glucose loaded: glucose 8 g/kg i.g 30 min after drug; for Fasting blood glucose: fasted, before administration (baseline), group dosed 3 mg/kg i.g; for blood glucose value compared with the positive drug (Linagliptin) / blood glucose levels compared with the blank group: normal mice, at 30, 60 and 120 min after glucose loaded; for blood glucose levels compared with the blank group: P<0.01
Procedure: KM mice, 6 weeks old, weighing 18˜22 g, half male and half female, 60 mice, provided by Chengdu Dashuo Biological Technology Co., Ltd., Production license: SCXK (Chuan) 2008-24. Animals were housed in the animal room after purchased, adaptively observed for at least three days, and used for assays […] they were qualified for the quarantine standard.
(§1) 2.1 Animals were fasted for at least 12 hours before starting the assay;
2.2 Grouping: fasting blood glucose values of the fasted mice were measured, and the mice were randomly grouped according to Table 1, with no significant difference between the groups;
Animals in each group were administrated with corresponding investigational compounds according the Table 1 by intragastric administration (i.g), then administrated with glucose (8 g/kg) respectively by intragastric administration at 30 min after administrating drugs, and the blood glucose values thereof were measured respectively at 30 min, 60 min and 120 min after administrating the glucose (glucose loaded).
(§2) Excel was used for statistics, experimental data were expressed as ( x±SD), and two-sided T-test method was used to statistically compare the experimental data among multiple groups.

[2] = test system: Type II spontaneous diabetic KKAy obese mice; assay: Impact on blood glucose in spontaneous diabetic mice; type: in vivo; conditions: for blood glucose at 30 min after glucose loaded / blood glucose at 60 min after glucose loaded / blood glucose at 120 min after glucose loaded: glucose 8 g/kg i.g 30 min after drug; for blood glucose at 30 min after glucose loaded / blood glucose at 60 min after glucose loaded / blood glucose at 120 min after glucose loaded / Fasting blood glucose: x ± SD; for Fasting blood glucose: fasted, before administration (baseline), group dosed 3 mg/kg i.g
Procedure: Type II spontaneous diabetic KKAy obese mice, 60 mice, 14 weeks old, half male and half female, purchased from Institute of Laboratory Animal Science, Chinese Academy of Medical Sciences (Qualified number: SCXK (Jing) 2009-0004). Animals were housed in the animal room after purchased, adaptively observed for at least three days, and used for assays […] they were qualified for the quarantine standard.
as §1
2.2 Fasting blood glucose values of the fasted mice were measured by ACCU-CHEK active glucose test strips, and the mice were randomly grouped according to Table 3. In addition, the C57BL/6J mice were used for the blank control group, while the type II spontaneous diabetic KKAy mice were used for the model group.
Animals in each group were administrated with corresponding investigational compounds according Table 3 by intragastric administration (i.g), then administrated with glucose (8 g/kg) respectively by intragastric administration at 30 min after administrating drugs, and the blood glucose values thereof were measured respectively at 30 min, 60 min and 120 min after administrating the glucose (glucose loaded).
as §2

[3] = molecular target: Dipeptidyl peptidase IV (DPP-IV) (Homo sapiens (Human), UniProt P27487); assay: DPP-IV activity inhibitory assay in vitro; type: biochemical; conditions: substrate Gly-Pro-7-amido-4-methylcoumarin, fluorescence 355/460 nm
Sequence of Dipeptidyl peptidase IV (DPP-IV) (P27487 whole entry): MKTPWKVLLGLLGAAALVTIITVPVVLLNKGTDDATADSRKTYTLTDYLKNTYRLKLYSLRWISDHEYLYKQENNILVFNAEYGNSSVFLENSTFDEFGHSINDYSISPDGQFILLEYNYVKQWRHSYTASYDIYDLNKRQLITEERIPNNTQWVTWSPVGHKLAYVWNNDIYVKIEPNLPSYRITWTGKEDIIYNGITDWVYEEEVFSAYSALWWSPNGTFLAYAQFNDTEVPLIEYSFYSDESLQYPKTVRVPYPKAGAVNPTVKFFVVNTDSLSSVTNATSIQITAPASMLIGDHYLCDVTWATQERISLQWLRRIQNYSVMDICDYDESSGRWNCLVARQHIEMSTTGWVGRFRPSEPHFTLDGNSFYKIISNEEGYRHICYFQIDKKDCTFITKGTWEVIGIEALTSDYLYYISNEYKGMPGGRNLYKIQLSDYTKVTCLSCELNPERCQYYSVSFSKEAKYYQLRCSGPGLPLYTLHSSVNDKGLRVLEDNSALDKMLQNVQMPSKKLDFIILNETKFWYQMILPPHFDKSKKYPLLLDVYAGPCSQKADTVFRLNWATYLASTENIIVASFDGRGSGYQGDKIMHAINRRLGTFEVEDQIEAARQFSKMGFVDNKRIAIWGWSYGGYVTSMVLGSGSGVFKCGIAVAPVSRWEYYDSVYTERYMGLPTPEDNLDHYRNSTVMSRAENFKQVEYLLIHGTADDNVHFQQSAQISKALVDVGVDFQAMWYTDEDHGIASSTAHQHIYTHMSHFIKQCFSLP
Procedure: 2.1 Dipeptidyl peptidase IV (DPP-IV): SIGMA products, Item No. D4943-1VL.
2.3 DPP-IV buffer: containing 25 mM Hepes, 140 mM NaCl, 1% BSA, 80 mM MgCl2, of which pH was adjusted to 8.0.
2.5 Testing equipment: envision (PerkinElmer Company).
The variation of the product amount can be determined by the variation of fluorescence intensity, so as to reflect the activity level of the enzyme.
The dipeptidyl peptidase IV (DPP-IV), DPP-IV buffer and test samples were used to construct the reaction system of 200 μL, while the blank control (without enzyme and samples) and negative control (without samples) having the same volume were set up. […] Inhibition ratio was calculated according to the fluorescence intensity F value, inhibition ratio=[1−(Fsample−Fblank)/(Fnegative−Fblank)]×100. […] According to inhibition ratio, 4 Parameter Logistic Model in Xlfit software was applied to calculate IC50.

| Structure (SMILES) | blood glucose at 30 min after glucose loaded [1] [mmol/L] | blood glucose at 60 min after glucose loaded [1] [mmol/L] | blood glucose at 120 min after glucose loaded [1] [mmol/L] | Fasting blood glucose [1] [mmol/L] | blood glucose value compared with the positive drug (Linagliptin) [1] | blood glucose levels compared with the blank group [1] | blood glucose value compared with the positive drug Linagliptin at 30 min after glucose loaded ([2]; 3 mg/kg i.g) | blood glucose at 30 min after glucose loaded ([2]; 3 mg/kg i.g) | blood glucose at 60 min after glucose loaded ([2]; 3 mg/kg i.g) | blood glucose at 120 min after glucose loaded ([2]; 3 mg/kg i.g) [mmol/L] | Fasting blood glucose [2] [mmol/L] | IC50 [3] [nM] | IC50 ([3]; hydrochloride) [nM] | blood glucose levels compared with the model group ([2]; 3 mg/kg i.g, at 30, 60 and 120 min after glucose loaded, P<0.01) |
| --- | --- | --- | --- | --- | --- | --- | --- | --- | --- | --- | --- | --- | --- | --- |
| CC#CCn1c(N2CCC[C@@H](N)C2)nc2c1c(=O)n(Cc1nc3cc(F)ccc3s1)c(=O)n2C [Ex. 1, 1-[(5-fluoro-1,3-benzothiazol-2-yl)methyl]-3-methyl-7-(2-butyn-1-yl)-8-[(R)-3-amino-piperidin-1-yl]-xanthine] | 15.02 ± 1.99 | 12.61 ± 1.98 | 8.79 ± 0.88 | 7.27 ± 0.74 | extremely significantly decreased | extremely significantly decrease | extremely significantly decreased | 14.98 ± 1.53^▴▴★★ mmol/L | 11.10 ± 2.45^▴▴★ mmol/L | 9.97 ± 1.28 | 9.29 ± 0.71 | – | – | – |
| CC#CCn1c(N2CCC[C@@H](N)C2)nc2c1c(=O)n(Cc1nc3ccccc3s1)c(=O)n2C [Ex. 2, 1-[(1,3-benzothiazol-2-yl)methyl]-3-methyl-7-(2-butyn-1-yl)-8-[(R)-3-amino-piperidin-1-yl]-xanthine] | 15.59 ± 2.04 | 12.78 ± 1.97 | 8.96 ± 1.16 | 7.43 ± 1.32 | significantly decreased | extremely significantly decrease | significantly decreased | 15.59 ± 1.23^▴▴★ mmol/L | 11.41 ± 1.58^▴▴★ mmol/L | 10.81 ± 1.37 | 9.07 ± 0.67 | 0.1 | – | – |
| CC#CCn1c(N2CCC[C@@H](N)C2)nc2c1c(=O)n(Cc1nc3cc(Cl)ccc3s1)c(=O)n2C [Ex. 3, 1-[(5-chloro-1,3-benzothiazol-2-yl)methyl]-3-methyl-7-(2-butyn-1-yl)-8-[(R)-3-amino-piperidin-1-yl]-xanthine] | 15.61 ± 1.10 | 13.49 ± 1.31 | 8.90 ± 1.26 | 7.19 ± 1.04 | significantly decreased | extremely significantly decrease | significantly decreased | 15.86 ± 1.04^▴▴★ mmol/L | 11.28 ± 1.67^▴▴★ mmol/L | 10.73 ± 1.46 | 9.15 ± 0.61 | 0.2 | – | – |
| CC#CCn1c(N2CCC[C@@H](N)C2)nc2c1c(=O)n(Cc1nc3cc(F)ccc3s1)c(=O)n2C.Cl [Ex. 4, 1-[(5-fluoro-1,3-benzothiazol-2-yl)methyl]-3-methyl-7-(2-butyn-1-yl)-8-[(R)-3-amino-piperidin-1-yl]-xanthine hydrochloride] | 15.50 ± 1.94 | 12.75 ± 1.43 | 8.91 ± 0.98 | 7.25 ± 0.98 | significantly decreased | extremely significantly decrease | significantly decreased | 15.60 ± 1.30^▴▴★ mmol/L | 11.45 ± 1.60^▴▴★ mmol/L | 10.75 ± 1.20 | 9.17 ± 0.58 | – | – | – |
| CC#CCn1c(N2CCC[C@@H](N)C2)nc2c1c(=O)n(Cc1nc3ccccc3s1)c(=O)n2C [Ex. 5, 1-[(1,3-benzothiazol-2-yl)methyl]-3-methyl-7-(2-butyn-1-yl)-8-[(R)-3-amino-piperidin-1-yl]-xanthine hydrochloride] | – | – | – | – | – | – | – | – | – | – | – | – | 0.15 | – |
| CC#CCn1c(N2CCC[C@@H](N)C2)nc2c1c(=O)n(Cc1nc(C)c3ccccc3n1)c(=O)n2C [Linagliptin, reference compound] | 17.07 ± 1.83 | 14.98 ± 1.66 | 9.96 ± 0.89 | 7.13 ± 0.86 | – | extremely significantly decrease | – | 17.14 ± 1.45 mmol/L | 13.10 ± 1.38 mmol/L | 11.27 ± 1.43 | 9.09 ± 0.53 | – | – | extremely significantly decrease |
